Laboratory results: patent US12195427B2, “MASP-2 inhibitors and methods of use” (priority 2018, dated 2025)
Structures can show the parent of a compound that is named as a salt.

Target: MASP-2 CCP2-SP (Homo sapiens (Human), UniProt O00187)
Test: MASP-2 co-crystallization, X-ray crystallography and structure analysis (H-bonds, van der Waals contacts);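 for Ligand-pharmacophore element distance, pharmacophore element C2: distance from averaged pharmacophore element to bound ligand; missing value means element absent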;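 for Ligand-pharmacophore element distance, pharmacophore element C3: distance from averaged pharmacophore element to bound ligand; missing value means element absent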;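 for Ligand-pharmacophore element distance, pharmacophore element C4: distance from averaged pharmacophore element to bound ligand; missing value means element absent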;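 for Ligand-pharmacophore element distance, pharmacophore element C5: distance from averaged pharmacophore element to bound ligand; missing value means element absent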
Design: van der Waals contact distance, MASP-2 HIS 483 atom CD2 / van der Waals contact distance, MASP-2 HIS 483 atom NE2 / van der Waals contact distance, SER 654 C to compound atom / van der Waals contact distance, SER 654 O to compound atom / van der Waals contact distance, TRP 655 C to compound atom / van der Waals contact distance, MASP-2 GLY 528 atom CA / van der Waals contact distance TRP 655 atom CZ3 / van der Waals contact distance TRP 655 atom N / van der Waals contact distance TRP 655 atom CE3 / van der Waals contact distance GLY 656 atom C / van der Waals contact distance GLY 656 atom CA / van der Waals contact distance GLY 656 atom O / van der Waals contact distance, MASP-2 TYR 607 atom CD1 / van der Waals contact distance, MASP-2 PRO 606 atom O / d(C3,CA1) / d(CA1,N1)2 / d(H4,O1) / d(H4,O2) / d(O1,O2) / d(CA1,O2) / d(CA6,O1) / d(CA6,O2) / d(CA1,C5) / d(O2,H3) / d(N2,C2) / d(CA5,N2) / d(N2,C4) / d(N2,C6) / d(N2,CA3) / d(N2,O3) / d(O4,H2): unit not given beside the values
Conditions: for H-bond distance to MASP-2 GLY 656 atom O: GLY 656 O; for H-bond distance to MASP-2 SER 628 atom O: SER 628 O; for H-bond distance to MASP-2 SER 654 atom O: SER 654 O; for H-bond distance to MASP-2 SER 657 atom O: SER 657 O; for van der Waals contact distance, MASP-2 HIS 483 atom CD2 / van der Waals contact distance, MASP-2 HIS 483 atom NE2: Table A2-1; for van der Waals contact distance, VAL 653 CG1 to compound atom: Table A2-11; for van der Waals contact distance TRP 655 atom CE3 / van der Waals contact distance TRP 655 atom CZ3: Table A2-13; for van der Waals contact distance TRP 655 atom CE3: MASP-2 TRP 655 CE3, compound atom in line below; for van der Waals contact distance TRP 655 atom CZ3: MASP-2 TRP 655 CZ3; for Ligand-pharmacophore element distance, pharmacophore element C2 / Ligand-pharmacophore element distance, pharmacophore element C3 / Ligand-pharmacophore element distance, pharmacophore element C4 / Ligand-pharmacophore element distance, pharmacophore element C5 / Ligand-pharmacophore element distance, pharmacophore element C6 / Ligand-pharmacophore element distance, pharmacophore element C7 / Ligand-pharmacophore element distance, pharmacophore element CA1 / Ligand-pharmacophore element distance, pharmacophore element CA2 / Ligand-pharmacophore element distance, pharmacophore element CA3 / Ligand-pharmacophore element distance, pharmacophore element CA4 / Ligand-pharmacophore element distance, pharmacophore element CA5 / Ligand-pharmacophore element distance, pharmacophore element CA6: Table A4-1; for d(C3,CA1) / d(CA1,N1)2 / d(CA1,O1) / d(CA1,O2) / d(H4,O1) / d(H4,O2) / d(O1,O2): Table A5-1 pharmacophore: distance between elements, S2/S1 region; for a(C3, CA1, O1) / a(CA1, O1, O2) / a(O1, O2, H4) / a(N1, CA1, O1) b): Table A6-1 pharmacophore angle; for a(N1, CA1, O1) b): Methyl-amino-pyridine compounds
In short: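 Human MASP-2 CCP2-SP (± 6His) expressed in E. coli and crystallized; crystals soaked in crystallization solution containing inhibitor, cryoprotected with 20% glycerol or frozen directly. Synchrotron data at 1.0 wavelength; molecular replacement from 1Q3X, partial refinement; one ligand pose analyzed; LigPlot+ contacts may include H-bonds.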

[1] = Table A2-5: TYR 607 (CE1, CE2, OH), PRO 608 (CD, CG), SER 611 (CA)
[2] = Table A5-2 pharmacophore distance, S3/S4 region
[3] = Table A7-1, between pharmacophore elements of the bound compound
[4] = Table A7-2, between pharmacophore elements of the bound compound

Chain of MASP-2 CCP2-SP (O00187 445-686): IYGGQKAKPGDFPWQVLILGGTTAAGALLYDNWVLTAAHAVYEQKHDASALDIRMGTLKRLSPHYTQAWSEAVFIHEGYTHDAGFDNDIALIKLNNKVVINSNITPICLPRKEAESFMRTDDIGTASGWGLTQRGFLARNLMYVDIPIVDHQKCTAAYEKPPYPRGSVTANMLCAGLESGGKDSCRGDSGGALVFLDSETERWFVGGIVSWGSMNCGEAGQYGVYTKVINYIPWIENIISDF
Chain of MASP-2 CCP2-SP (O00187 364-432 partner): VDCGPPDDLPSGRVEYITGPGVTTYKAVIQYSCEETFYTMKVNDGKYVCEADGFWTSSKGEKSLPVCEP

In the case of `Cc1nc(N)ccc1CNC(=O)[C@H](C)NC(=O)[C@H]1C[C@@H](c2ccccc2)CCN1` [compound 1253, (2R,4S)—N—((S)-1-(((6-Amino-2-methylpyridin-3-yl)methyl)amino)-1-oxopropan-2-yl)-4-phenylpiperidine-2-carboxamide Dihydrochloride], the “H-bond distance to MASP-2 ASP 627 atom OD2” value (Table A1 (H-Bonds), ASP 627 OD2) is reported as 3.33, the “H-bond distance to MASP-2 GLY 656 atom N” value (Table A1 (H-Bonds), GLY 656 N) is reported as 3.23 and the “H-bond distance to MASP-2 GLY 656 atom O” value (Table A1 (H-Bonds)) is reported as 2.83. The “H-bond distance to MASP-2 SER 628 atom O” value (Table A1 (H-Bonds)) was 3.12, the “H-bond distance to MASP-2 SER 654 atom O” value (Table A1 (H-Bonds)) was 2.99 and the “H-bond distance to MASP-2 SER 657 atom O” value (Table A1 (H-Bonds)) was 2.85. For the same molecule, the “van der Waals contact distance, MASP-2 HIS 483 atom CD2” value was 3.74, the “van der Waals contact distance, MASP-2 HIS 483 atom NE2” value was 3.66 and the “van der Waals contact distance, MASP-2 PHE 529 atom CE2” value (Table A2-3) was 3.77. The “van der Waals contact distance, MASP-2 amino acid atom to compound atom” value [1] was 3.73, the “van der Waals contact distance, MASP-2 amino acid atom to compound atom” value (Table A2-7: SER 628 (CB, O, OG)) was 3.58 and the “van der Waals contact distance, VAL 653 CG1 to compound atom” value was 3.31. For the same molecule, the “van der Waals contact distance, TRP 655 CA to compound atom” value (Table A2-12) was 3.41, the “van der Waals contact distance TRP 655 atom CE3” value was 3.61 and the “van der Waals contact distance TRP 655 atom CZ3” value was 3.71. The “Ligand-pharmacophore element distance, pharmacophore element C2” value was 0.28, the “Ligand-pharmacophore element distance, pharmacophore element C3” value was 0.07 and the “Ligand-pharmacophore element distance, pharmacophore element C4” value was 0. For the same molecule, the “Ligand-pharmacophore element distance, pharmacophore element C5” value was 0, the “Ligand-pharmacophore element distance, pharmacophore element C6” value was 0 and the “Ligand-pharmacophore element distance, pharmacophore element C7” value was 0. For the same molecule, the “Ligand-pharmacophore element distance, pharmacophore element CA1” value was 0.59, the “Ligand-pharmacophore element distance, pharmacophore element CA2” value was 0.23 and the “Ligand-pharmacophore element distance, pharmacophore element CA3” value was 0. The “Ligand-pharmacophore element distance, pharmacophore element CA4” value was 0, the “Ligand-pharmacophore element distance, pharmacophore element CA5” value was 0 and the “Ligand-pharmacophore element distance, pharmacophore element CA6” value was 0. The “d(C3,CA1)” value was 2.87, the “d(CA1,N1)2” value was 1.37 and the “d(CA1,O1)” value was 4.36. For the same molecule, the “d(CA1,O2)” value was 3.83, the “d(H4,O1)” value was 4.38 and the “d(H4,O2)” value was 3.69. The “d(O1,O2)” value was 3.39, the “d(N2,C2)” value [2] was 1.46 and the “d(N2,CA2)” value [2] was 5.74. For the same molecule, the “d(O2,H3)” value [2] was 2.04, the “d(O2,N2)” value [2] was 2.70 and the “a(C3, CA1, O1)” value was 149.95. The “a(CA1, O1, O2)” value was 105.84, the “a(O1, O2, H4)” value was 131.28 and the “a(N1, CA1, O1) b)” value was 174.19. The “a(O1, O2, H3)” value (Table A6-2 pharmacophore angle) was 134.57, the “a(O1, O2, N2)” value (Table A6-2 pharmacophore angle) was 140.99 and the “a(O2, N2, C2)” value (Table A6-2 pharmacophore angle) was 130.77. The “a(O2, N2, CA2)” value (Table A6-2 pharmacophore angle) was 155.92, the “Pharmacophore torsion angle a(C3, CA1, O1, H4)” value [3] was 26.20 and the “Pharmacophore torsion angle a(H4, O1, O2, H3)” value [3] was 115.64. The “Pharmacophore torsion angle a(H4, O1, O2, N2)” value [3] was 140.24, the “Pharmacophore torsion angle a(N1, CA1, O1, H4)” value [3] was 3.75 and the “Pharmacophore torsion angle a(O1, H4, O2, CA1)” value [3] was −82.09. The “Pharmacophore torsion angle a(O1, O2, N2, C2)” value [3] was 120.69 and the “Pharmacophore torsion angle a(O1, O2, N2, CA2)” value [4] was 126.24.

For `Cc1cccc([C@H]2CN[C@@H](C(=O)N[C@@H](C)C(=O)NCc3ccc(N)nc3C)C2)c1` [compound 1257, (2R,4S)—N—((S)-1-(((6-Amino-2-methylpyridin-3-yl)methyl)amino)-1-oxopropan-2-yl)-4-(m-tolyl)pyrrolidine-2-carboxamide Dihydrochloride], the “H-bond distance to MASP-2 GLY 656 atom O” value (Table A1 (H-Bonds)) was 2.82, the “H-bond distance to MASP-2 SER 628 atom O” value (Table A1 (H-Bonds)) was 3.12 and the “H-bond distance to MASP-2 SER 654 atom O” value (Table A1 (H-Bonds)) was 3.02. For the same molecule, the “H-bond distance to MASP-2 SER 657 atom O” value (Table A1 (H-Bonds)) was 2.86, the “van der Waals contact distance, MASP-2 HIS 483 atom CD2” value was 3.7 and the “van der Waals contact distance, MASP-2 HIS 483 atom NE2” value was 3.72. For the same molecule, the “van der Waals contact distance, MASP-2 PHE 529 atom CD1” value (Table A2-3) was 3.89, the “van der Waals contact distance, MASP-2 PRO 606 atom O” value (Table A2-4) was 3.38 and the “van der Waals contact distance, MASP-2 amino acid atom to compound atom” value [1] was 3.8. For the same molecule, the “van der Waals contact distance, MASP-2 amino acid atom to compound atom” value (Table A2-9, ARG 630, AA atoms CG, CZ) was 3.53, the “van der Waals contact distance, VAL 653 CG1 to compound atom” value was 3.36 and the “van der Waals contact distance, SER 654 O to compound atom” value (Table A2-12) was 3.73. The “van der Waals contact distance, TRP 655 CA to compound atom” value (Table A2-12) was 3.57, the “van der Waals contact distance TRP 655 atom CE3” value was 3.87 and the “van der Waals contact distance TRP 655 atom CZ3” value was 3.77. For the same molecule, the “van der Waals contact distance, MASP-2 amino acid atom to compound atom” value (Table A2 section before Table A2-8) was 3.86, the “Ligand-pharmacophore element distance, pharmacophore element C2” value was 0 and the “Ligand-pharmacophore element distance, pharmacophore element C3” value was 0.1. For the same molecule, the “Ligand-pharmacophore element distance, pharmacophore element C4” value was 0, the “Ligand-pharmacophore element distance, pharmacophore element C5” value was 0 and the “Ligand-pharmacophore element distance, pharmacophore element C6” value was 0.53. For the same molecule, the “Ligand-pharmacophore element distance, pharmacophore element C7” value was 0, the “Ligand-pharmacophore element distance, pharmacophore element CA1” value was 0.65 and the “Ligand-pharmacophore element distance, pharmacophore element CA2” value was 0. For the same molecule, the “Ligand-pharmacophore element distance, pharmacophore element CA3” value was 0, the “Ligand-pharmacophore element distance, pharmacophore element CA4” value was 0 and the “Ligand-pharmacophore element distance, pharmacophore element CA5” value was 1.2. The “Ligand-pharmacophore element distance, pharmacophore element CA6” value was 0, the “d(C3,CA1)” value was 2.87 and the “d(CA1,N1)2” value was 1.35. For the same molecule, the “d(CA1,O1)” value was 4.45, the “d(CA1,O2)” value was 4.03 and the “d(H4,O1)” value was 4.43. The “d(H4,O2)” value was 3.84, the “d(O1,O2)” value was 3.61 and the “d(CA5,N2)” value [2] was 5.09. The “d(N2,C6)” value [2] was 6.64, the “d(O2,H3)” value [2] was 2.18 and the “d(O2,N2)” value [2] was 2.71. For the same molecule, the “a(C3, CA1, O1)” value was 150.46, the “a(CA1, O1, O2)” value was 109.00 and the “a(O1, O2, H4)” value was 128.83. The “a(N1, CA1, O1) b)” value was 174.64, the “a(O1, O2, H3)” value (Table A6-2 pharmacophore angle) was 132.63 and the “a(O1, O2, N2)” value (Table A6-2 pharmacophore angle) was 141.45. The “a(O2, N2, C6)” value (Table A6-2 pharmacophore angle) was 105.30, the “Pharmacophore torsion angle a(C3, CA1, O1, H4)” value [3] was 30.77 and the “Pharmacophore torsion angle a(H4, O1, O2, H3)” value [3] was 108.60. For the same molecule, the “Pharmacophore torsion angle a(H4, O1, O2, N2)” value [3] was 132.94, the “Pharmacophore torsion angle a(N1, CA1, O1, H4)” value [3] was 11.94 and the “Pharmacophore torsion angle a(O1, H4, O2, CA1)” value [3] was −83.51. For the same molecule, the “Pharmacophore torsion angle a(O1, O2, N2, C6)” value [4] was 146.13 and the “Pharmacophore torsion angle a(O1, O2, N2, CA5)” value [4] was 134.25.
